Measured values as given in publication PMC6826779, “Bis-allylic Deuterated DHA Alleviates Oxidative Stress in Retinal Epithelial Cells” (Antioxidants, 2019).

Tests used:
ARPE-19 cells = assay: Lipid peroxidation status with C11-Bodipy581/591 probe (FACS) under oxidative conditions; assay type: cell-based; conditions: ARPE-19, 50 µM for 24 h
Protocol: ARPE-19 cells were plated into 2 cm^2 wells (2 × 10^5 cells/well) and cultured for 24 h to reach confluence before PUFA or lipophenol treatment. The cell cultures were treated with 1% FBSM containing tested compounds (deuterated DHAs or deuterated lipophenols) at 50 μM for 24 h and then rinsed with media before the incubation of 5 µM C11-Bodipy^581/591 for 30 min. Then, the cells were rinsed and treated with the different stressors, corresponding to different protocols. For chemical stress the cells were incubated with 400 µM of H2O2 during 24 h followed by FACS analysis. For photobleaching stress, the cells were exposed to a white LED lamp with an intensity of 5000 lux at room temperature during 1 h followed by the FACS analysis.
FACS was performed with the BD Accuri C6 Flow Cytometer and BD Accuri C6 Software for data acquisition (BD Biosciences). This flow cytometer is equipped with an excitation laser at 488 nm, and a fluorescence detector FL1 533/30 nm. Data were collected to 10,000 events for each sample using a flow rate of 35 µL/min. Parameters obtained for data analysis included: cell size from the forward scatter (FSC), granularity from the side scatter (SSC) and the green fluorescence of the stained cells with C11-Bodipy^581/591.
First the SSC-A versus FSC-A dot-plot was used to gate the cellular population and remove the cellular debris. Then the SSC-A versus SSC-H dot-plot was used to remove cell doublets in the previous gate to give a final gate. The cellular population in the last gate designed was plotted on count versus log green fluorescence to give the fluorescence mean intensity of FL1. The mean FL1 values were normalized to the cells only stained with C11-Bodipy^581/591.

15-sLOX = target: T1, 15-sLOX (Glycine max, UniProt P08170); assay: LC-MS/MS of 15s-LOX oxidized samples (product profile); assay type: biochemical, Glycine max (soybean); conditions: 0.1 mM substrate, 30 min reaction, room temperature
T1 sequence (P08170 1-839): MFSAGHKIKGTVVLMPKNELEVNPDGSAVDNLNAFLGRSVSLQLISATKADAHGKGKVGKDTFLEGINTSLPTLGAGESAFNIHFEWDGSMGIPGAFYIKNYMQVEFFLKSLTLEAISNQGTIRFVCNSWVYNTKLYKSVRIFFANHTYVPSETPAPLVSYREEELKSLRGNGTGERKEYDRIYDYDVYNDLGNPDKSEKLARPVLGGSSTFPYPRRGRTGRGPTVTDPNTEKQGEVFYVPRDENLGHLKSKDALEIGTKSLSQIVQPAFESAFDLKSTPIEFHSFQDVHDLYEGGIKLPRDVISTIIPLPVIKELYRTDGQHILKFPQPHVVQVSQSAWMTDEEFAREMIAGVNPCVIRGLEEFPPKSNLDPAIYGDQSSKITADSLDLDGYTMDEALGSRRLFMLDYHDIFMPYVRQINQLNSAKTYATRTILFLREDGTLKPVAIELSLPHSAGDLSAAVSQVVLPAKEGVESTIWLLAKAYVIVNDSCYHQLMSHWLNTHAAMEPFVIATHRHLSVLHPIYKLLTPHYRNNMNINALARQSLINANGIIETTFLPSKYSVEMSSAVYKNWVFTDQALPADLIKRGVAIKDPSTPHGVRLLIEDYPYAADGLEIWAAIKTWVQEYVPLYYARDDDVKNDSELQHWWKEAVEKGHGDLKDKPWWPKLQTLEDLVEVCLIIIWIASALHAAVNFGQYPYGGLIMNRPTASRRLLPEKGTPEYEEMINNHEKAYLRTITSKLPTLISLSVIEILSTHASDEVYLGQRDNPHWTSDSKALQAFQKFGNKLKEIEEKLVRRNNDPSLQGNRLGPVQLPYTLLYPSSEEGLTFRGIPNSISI
Protocol: In order to gain insights on the nature of the produced metabolites, LC-MS/MS analysis of the reaction products were carried out. To this end, the respective DHA variants (0.1 mM) were incubated in a 2 mL eppendorf tube with 10 µL 15-sLOX (4 mg/mL) in sodium borate buffer (50 mM, pH 9) for 30 min at room temperature and the reaction quenched by the addition of cold MeOH (760 µL). The hydroperoxides were reduced with the addition of aq. SnCl2 (50 µL, 5 mg/mL) and subsequently the mixture was centrifuged (16,100 ×g for 5 min). Water (2 mL) was added to the supernatant, followed by the dropwise addition of glacial acetic acid (40 µL). The products were purified by SPE using SepPak 200 mg C18 cartridges (3CC), according to published protocols. The methyl formate eluates were evaporated to dryness, dissolved in MeOH (0.5 mL) and stored at −80 °C until analysis. The resulting solution was diluted 1000 times with MeOH for LC-MS/MS measurements. To 120 µL water, 72 µL of MeOH, 4 µL of the diluted solution and 4 µL of an internal standard (15-HETE-d8, Leukotriene LTB4-d4 and DHA-d5) was added. The samples were loaded in a SIL-30AC autosampler and the analytes separated on a Kinetex 1.7 µm C18 100Å, 50 × 2.1 mm LC column as described. The detection of DHA metabolites was performed in selected ion monitoring mode using several traces in order to take the eventual loss of a deuterium atom into account. The following traces were used: m/z 327.2, 343.2, 359.2 and 375.2 for DHA and its metabolites, m/z 327.2, 328.2, 329.2, 344.2, 345.2, 360.2, 361.2, 376.2, 377.2 for D2-DHA, m/z 331.2, 345.3, 346.2, 361.2, 362.3, 363.2, 377.2, 378.2 and 379.2 for D4-DHA and m/z 337.2, 352.2, 353.2, 367.2, 368.2, 369.2, 383.2, 384.2 and 385.2 for D10-DHA. Tandem mass spectra were recorded as product ion scans. Quantification of the metabolites was done by calculating the area ratio between the analyte and the internal standard (DHA-d5 for non-hydroxylated, 15-HETE-d8 for mono-hydroxylated and LTB4-d4 for di-hydroxylated derivatives) using Multiquant version 3.0.2.

[1] = serum starvation (1% FBSM) 24 h
[2] = serum starvation (1% FBSM) 48 h

SMILES	lipid peroxidation status (C11-BODIPY fluorescence) (ARPE-19 cells; [1])	pre-dominant product of 15-sLOX oxidation (LC-MS) (15-sLOX)	lipid peroxidation status (C11-BODIPY fluorescence) (ARPE-19 cells; [2])	lipid peroxidation status (C11-BODIPY fluorescence) (ARPE-19 cells; then H2O2 400 µM 24 h)	lipid peroxidation status (C11-BODIPY fluorescence) (ARPE-19 cells; then photobleaching (white light, 5000 lux, 1 h))
[2H]C([2H])(/C=C\C/C=C\C/C=C\C/C=C\C/C=C\CC)/C=C\CCC(=O)O [D2-DHA, (6,6-D2)-DHA]	decreased lipid peroxidation status with the same efficiency, reaching oxidation levels of untreated cells	double oxygenation product 10S,17S-diHDHA	–	–	–
[2H]C([2H])(C=CCC=CCC=CCC=CCC)C=CC([2H])([2H])C=CCCC(=O)O [D4-DHA, (6,6,9,9-D4)-DHA]	decreased lipid peroxidation status with the same efficiency, reaching oxidation levels of untreated cells	double oxygenation product 10S,17S-diHDHA	reach radical levels close to untreated cells	more effective than D2-DHA	–
CC/C=C\C/C=C\C/C=C\C/C=C\C/C=C\C/C=C\CCC(=O)O [Natural DHA, docosahexaenoic acid, reference compound]	–	double oxygenation product 10S,17S-diHDHA	increase in lipid peroxidation status compared to untreated cells	increase of oxidation	increase in lipid peroxidation under photobleaching-stress
